Where two headings read alike, the source gives them in different places.
Test: Pharmacokinetic study in serum and brain
Format: in vivo, mice
Conditions: for k el: read-out: λz (converted); for Vd/F: read-out: Vz/F
Protocol: Male CD-1 mice weighing 28–33 g housed in conditions of constant temperature with the 12:12 h light–dark cycle with free access to food and water were used in this study. The investigated compound was suspended in 1% Tween in sterile water for injection (Polpharma, Poland) and administered i.p. at two doses of 25 and 50 mg/kg. Additionally, the compound dissolved in a mixture of dimethylsulfoxide (DMSO), poly(ethylene glycol), and sterile water (1:2:7, v/v/v) was given orally (p.o.) at a dose of 25 mg/kg. The mice were sacrificed by decapitation under isoflurane anesthesia. Blood samples were collected at 5, 15, 30, 60, 120, 240, and 720 min after dosing (n = 3–4), and brains were harvested at the same time points. Blood was allowed to clot at room temperature for 20 min, and serum was separated by centrifugation at 3000 rpm for 10 min. The samples were stored at −80 °C until analysis. All animal procedures were approved by the First Ethics Committee on Animal Experimentation in Kraków (license no. 270/2019).
Before LC-MS/MS analysis, mouse brains were homogenized in distilled water at the ratio of 1:4 (w/v) using the ULTRA-TURRAX T10 basic tissue homogenizer (IKA, Germany). Brain homogenates or serum samples (50 μL) were deproteinized with 150 μL of 0.1% formic acid in acetonitrile with addition of the internal standard (valsartan), shaken for 10 min (IKA Vibrax VXR, Germany), and then centrifuged for 5 min at a speed of 8000g (Eppendorf miniSpin centrifuge, Germany). Supernatants were transferred into autosampler vials, and a sample volume of 1 μL was injected into the LC-MS/MS system. The autosampler temperature was maintained at 15 °C. Analytes were separated on a Hypersil Gold C18 analytical column (3 × 50 mm^2, 5 μm, Thermo Scientific) using an AB Sciex Exion LC AC HPLC system coupled with the triple quadrupole mass spectrometer (Sciex QTRAP 4500, both from the Danaher Corporation). The oven temperature was set at 30 °C. The initial mobile phase composition was 95% B (0.1% formic acid in water) and 5% A (0.1% formic acid in MeCN) for the first 2 min with a linear gradient to 5% B in the next 2 min and then isocratic mode for 2 min with the following rapid change back to 95% B in 0.1 min. The remaining time of elution was set at 95% B. The whole HPLC operation lasted 10 min, and the flow rate was set at 0.4 mL/min. Electrospray ionization (ESI) in the positive ion mode was used for ion production. […] The mass spectrometric conditions were optimized by continuous infusion of the standard solution at a rate of 7 μL/min using a Harvard infusion pump. The ion source temperature was maintained at 450 °C, and the ion spray voltage was set at 5500 V. The curtain gas (CUR) was set at 40 psi and the collision gas (CAD) at Medium. The calibration curves were constructed by plotting the ratio of the peak area of the studied compound to the internal standard (IS) versus drug concentration and generated by weighted (1/x × x) linear regression analysis. […] Working standard solutions were prepared in methanol by the serial dilution of the stock solution at the following concentrations: 0.01, 0.1, 0.25, 0.5, 1, 2.5, 5, 10, 20, 50, 100, and 200 μg/mL. To prepare samples for the calibration curve, 45 μL of the matrix (plasma or brain homogenate) was spiked with 5 μL of the standard working solution at an appropriate concentration level and vortexed for 10 s. For each matrix, there were two calibration curves constructed separately for lower and higher concentrations. Calibrators (as well as samples) from the upper concentration range were additionally 10 times diluted with the precipitating agent. The validated quantitation ranges for this method were from 0.001 to 5 μg/mL and from 0.1 to 20 μg/mL of serum, and from 0.005 to 25 μg/g and from 0.5 to 100 μg/g of the brain. Samples with the concentration of 28 above the upper limit of quantification were diluted 10 times with the blank matrix (serum or brain homogenate). […]

[1] = male, CD-1, mouse, ip, brain, i.p. 25 mg/kg, mice
[2] = male, CD-1, mouse, ip, brain, i.p. 50 mg/kg, mice
[3] = male, CD-1, mouse, ip, serum, i.p. 25 mg/kg, mice
[4] = male, CD-1, mouse, ip, serum, i.p. 50 mg/kg, mice
[5] = male, CD-1, mouse, po, brain, p.o. 25 mg/kg, mice
[6] = male, CD-1, mouse, po, serum, p.o. 25 mg/kg, mice

brain concentration (after 25 mg/kg dose administration): > 10 µM
AUC0–t (brain, i.p. 25 mg/kg, mice): 347,914.8 ng·min/mL (g)
AUC0–∞ (brain, i.p. 25 mg/kg, mice): 348,212.5 ng·min/mL (g)
Cmax (brain, i.p. 25 mg/kg, mice): 13,683.3 ng/mL (g)
t0.5λz (brain, i.p. 25 mg/kg, mice): 111.39 min
AUC0–t (brain, i.p. 50 mg/kg, mice): 1,284,194.3 ng·min/mL (g)
AUC0–∞ (brain, i.p. 50 mg/kg, mice): 1,285,007.9 ng·min/mL (g)
Cmax (brain, i.p. 50 mg/kg, mice): 39,800.0 ng/mL (g)
t0.5λz (brain, i.p. 50 mg/kg, mice): 106.52 min
AUC0–t (brain, p.o. 25 mg/kg, mice): 333,360.7 ng·min/mL (g)
AUC0–∞ (brain, p.o. 25 mg/kg, mice): 334,667.7 ng·min/mL (g)
Cmax (brain, p.o. 25 mg/kg, mice): 3799.4 ng/mL (g)
t0.5λz (brain, p.o. 25 mg/kg, mice): 97.20 min
Kp (male, CD-1, mouse, brain/serum, intraperitoneal, oral, both doses and routes of administration, read-out: brain-to-serum Cmax and AUC ratio): > 1
Tmax (male, CD-1, mouse, intraperitoneal, oral, all cases (serum and brain, both doses and routes), read-out: time to reach the maximum concentration (tmax) (converted)): 5 min
half-life (male, CD-1, mouse, intraperitoneal, oral, serum and brain, both doses and routes (i.p. and p.o.), read-out: elimination half-lives (t1/2)): 58.6 to 111 min
MRT [1]: 23.6 min
Tmax (male, CD-1, mouse, ip, brain, i.p. 25 mg/kg, mice, read-out: tmax (converted)): 5 min
k el [1]: 0.0001 s⁻¹
MRT [2]: 26.4 min
Tmax (male, CD-1, mouse, ip, brain, i.p. 50 mg/kg, mice, read-out: tmax (converted)): 5 min
k el [2]: 0.000117 s⁻¹
CL/F [3]: 98 mL/min/kg
MRT [3]: 22 min
Vd/F [3]: 13.4 L/kg
Tmax (male, CD-1, mouse, ip, serum, i.p. 25 mg/kg, mice, read-out: tmax (converted)): 5 min
k el [3]: 0.000117 s⁻¹
CL/F [4]: 48 mL/min/kg
MRT [4]: 24.4 min
Vd/F [4]: 5.89 L/kg
Tmax (male, CD-1, mouse, ip, serum, i.p. 50 mg/kg, mice, read-out: tmax (converted)): 5 min
k el [4]: 0.000133 s⁻¹
MRT [5]: 110 min
Tmax (male, CD-1, mouse, po, brain, p.o. 25 mg/kg, mice, read-out: tmax (converted)): 5 min
k el [5]: 0.000117 s⁻¹
CL/F [6]: 84 mL/min/kg
MRT [6]: 101 min
Vd/F [6]: 7.1 L/kg
Tmax (male, CD-1, mouse, po, serum, p.o. 25 mg/kg, mice, read-out: tmax (converted)): 5 min
k el [6]: 0.0002 s⁻¹
AUC0–t (serum, i.p. 25 mg/kg, mice): 254,384.6 ng·min/mL (g)
AUC0–∞ (serum, i.p. 25 mg/kg, mice): 254,465.4 ng·min/mL (g)
Cmax (serum, i.p. 25 mg/kg, mice): 11,033.3 ng/mL (g)
t0.5λz (serum, i.p. 25 mg/kg, mice): 94.29 min
AUC0–t (serum, i.p. 50 mg/kg, mice): 1,045,787.2 ng·min/mL (g)
AUC0–∞ (serum, i.p. 50 mg/kg, mice): 1,045,940.8 ng·min/mL (g)
Cmax (serum, i.p. 50 mg/kg, mice): 37,566.7 ng/mL (g)
t0.5λz (serum, i.p. 50 mg/kg, mice): 85.42 min
AUC0–t (serum, p.o. 25 mg/kg, mice): 297,899.7 ng·min/mL (g)
AUC0–∞ (serum, p.o. 25 mg/kg, mice): 298,019.5 ng·min/mL (g)
Cmax (serum, p.o. 25 mg/kg, mice): 3740.0 ng/mL (g)
t0.5λz (serum, p.o. 25 mg/kg, mice): 58.62 min
SMILES: CC(=O)NC(C)C(=O)N1CCN(c2cccc(OC(F)(F)F)c2)CC1 (stereo not shown) [Compound 28, N-(1-oxo-1-(4-(3-(Trifluoromethoxy)phenyl)piperazin-1-yl)propan-2-yl)acetamide]

From PMC11157491, “Novel Alaninamide Derivatives with Drug-like Potential for Development as Antiseizure and Antinociceptive Therapies—In Vitro and In Vivo Characterization” (ACS Chemical Neuroscience, 2024)
